Values quoted from earlier work in patent US20110282046A1, “PROCESS FOR PREPARATION OF CIS-NUCLEOSIDE DERIVATIVE” (priority 2009, published 2011).
Where two headings read alike, the source gives them in different places.

Details: for volume of water in which 1 g dissolves: Merck Index Entry no. 8869

Row | volume of water in which 1 g dissolves (boiling water) [mL] | volume of water in which 1 g dissolves (cold water) [mL] | solubility in water (water, Merck Index Entry no. 8332) [g in 100 ml water] | Structure (SMILES)
1 | 1 | 13 | – | O=C(O)CCC(=O)O [Succinic acid]
2 | – | – | 0.20 | O=C(O)c1ccccc1O [salicylic acid]
